What was measured:
[1] = Cytotoxicity against HEK293 cells assessed as inhibition of cell growth incubated for 48 hrs by resazurin dye based assay; format: toxicity; settings: human
Leishmania donovani [2] = assay: Antileishmanial activity against Leishmania donovani 9515 amastigote infected in human THP-1 cells assessed as static activity by measuring inhibition of parasite growth incubated for 72 hrs by resazurin dye based assay; format: functional, organism-based; settings: Leishmania donovani, 9515, THP-1, 72 h
Leishmania major [3] = assay: Antileishmanial activity against Leishmania major IR-173 promastigotes assessed as inhibition of parasite growth incubated for 48 hrs by resazurin dye based assay; format: functional, organism-based; settings: IR-173, 48 h
Leishmania major [4] = assay: Antileishmanial activity against Leishmania major IR-173 amastigote infected in human THP-1 cells assessed as static activity by measuring inhibition of parasite growth incubated for 72 hrs by resazurin dye based assay; format: functional, organism-based; settings: IR-173, THP-1, 72 h
Leishmania major [5] = assay: Leishmanicidal activity against Leishmania major IR-173 amastigote infected in human THP-1 cells incubated for 72 hrs by resazurin dye based analysis; format: functional, organism-based; settings: IR-173, THP-1, 72 h
Leishmania donovani [6] = assay: Antileishmanial activity against Leishmania donovani 9515 promastigotes assessed as inhibition of parasite growth incubated for 48 hrs by resazurin dye based assay; format: functional, organism-based; settings: Leishmania donovani, 9515, 48 h
Leishmania donovani [7] = assay: Leishmanicidal activity against Leishmania donovani 9515 amastigote infected in human THP-1 cells incubated for 72 hrs by resazurin dye based analysis; format: functional, organism-based; settings: Leishmania donovani, 9515, THP-1, 72 h
[8] = Selectivity index, ratio of IC50 for cytotoxicity against HEK293 cells to IC50 for antileishmanial activity against Leishmania major IR-173 promastigotes; format: toxicity, cell-based; settings: human, read-out: Ratio IC50
[9] = Selectivity index, ratio of IC50 for cytotoxicity against HEK293 cells to IC50 for antileishmanial activity against Leishmania donovani 9515 promastigotes; format: toxicity, cell-based; settings: human, read-out: Ratio IC50
[10] = Selectivity index, ratio of IC50 for antileishmanial activity against Leishmania major IR-173 promastigotes to IC50 for antileishmanial activity against Leishmania major IR-173 amastigote infected in human THP-1 cells assessed as static activity; format: functional
in vitro [11] = settings: African green monkey, Vero cells
in vitro [12] = settings: human, THP-1 cells
in vitro [13] = settings: monkey, Vero cells
Description: Selectivity index, ratio of IC50 for cytotoxicity against African green monkey Vero cells to IC50 for antileishmanial activity against Leishmania major IR-173 amastigote infected in human THP-1 cells assessed as static activity

[14] = Selectivity index, ratio of IC50 for cytotoxicity against African green monkey Vero cells to IC50 for leishmanicidal activity against Leishmania major […] amastigote infected in human THP-1 cells; format: toxicity, cell-based; settings: read-out: Ratio IC50
[15] = Selectivity index, ratio of IC50 for antileishmanial activity against Leishmania major IR-173 promastigotes to IC50 for leishmanicidal activity against Leishmania major IR-173 amastigote infected in human THP-1 cells; format: functional

Row | IC50 at 48 h (in vitro [11]) | IC50 at 48 h (in vitro [12]) | Structure (SMILES) | IC50 at 48 h [1] | IC50 (Leishmania donovani [2]) | IC50 (Leishmania major [3]) | IC50 (Leishmania major [4]) | IC50 (Leishmania major [5]) | IC50 (Leishmania donovani [6]) | IC50 (Leishmania donovani [7]) | selectivity ratio [8] | selectivity ratio [9] | Ratio IC50 [10] | selectivity ratio (in vitro [13]) | selectivity ratio [14] | Ratio IC50 [15]
1 |  |  | CCCCCc1ccc(-c2cn(CCCCCN3C(=O)CN(/N=C/c4ccc([N+](=O)[O-])o4)C3=O)nn2)cc1 | 9.73 µM | > 10 µM | > 10 µM | > 10 µM | > 10 µM | > 10 µM | > 10 µM |  |  |  |  |  | 
2 |  |  | CCCCCCc1cn(CCCCCN2C(=O)CN(/N=C/c3ccc([N+](=O)[O-])o3)C2=O)nn1 | 65.9 µM | > 10 µM | 1.5 µM | > 10 µM | > 10 µM | 0.61 µM | > 10 µM | 44 | 108 |  |  |  | 
3 |  |  | COc1ccc(-c2cn(CCCCCN3C(=O)CN(/N=C/c4ccc([N+](=O)[O-])o4)C3=O)nn2)cc1 | 22.7 µM | > 10 µM | 0.5 µM | > 10 µM | > 10 µM | > 10 µM | > 10 µM | 45 |  |  |  |  | 
4 |  |  | CCCCCCCCc1cn(CCCCCCN2C(=O)CN(/N=C/c3ccc([N+](=O)[O-])o3)C2=O)nn1 | 50.3 µM | > 10 µM | 2.62 µM | > 10 µM | > 10 µM | 0.11 µM | > 10 µM | 19 | 457 |  |  |  | 
5 |  |  | CCCCCCCCc1cn(CCCCCN2C(=O)CN(/N=C/c3ccc([N+](=O)[O-])o3)C2=O)nn1 | 28.6 µM | > 10 µM | > 10 µM | > 10 µM | > 10 µM | > 10 µM | > 10 µM |  |  |  |  |  | 
6 |  |  | O=C1CN(/N=C/c2ccc([N+](=O)[O-])o2)C(=O)N1CCCCCn1cc(CSc2ccccc2)nn1 | 87.9 µM | > 10 µM | 1.7 µM | > 10 µM | > 10 µM | 0.01 µM | > 10 µM | 52 | 8790 |  |  |  | 
7 |  |  | C[C@@H]1[C@H](O)[C@@H](C)/C=C/C=C/C=C/C=C/C=C/C=C/C=C/[C@H](O[C@@H]2O[C@H](C)[C@@H](O)[C@H](N)[C@@H]2O)C[C@@H]2O[C@](O)(C[C@@H](O)C[C@@H](O)[C@H](O)CC[C@@H](O)C[C@@H](O)CC(=O)O[C@H]1C)C[C@H](O)[C@H]2C(=O)O [AMPHOTERICIN B] |  |  |  | 0.03 µM |  |  |  |  |  |  |  |  | 
8 |  |  | CCCCc1cn(CCCCCCN2C(=O)CN(/N=C/c3ccc([N+](=O)[O-])o3)C2=O)nn1 | 44.5 µM | > 10 µM | 1.19 µM | > 10 µM | > 10 µM | > 10 µM | > 10 µM | 37 |  |  |  |  | 
9 |  |  | CCCCCc1cn(CCCCCCN2C(=O)CN(/N=C/c3ccc([N+](=O)[O-])o3)C2=O)nn1 | 15.5 µM | > 10 µM | 0.27 µM | > 10 µM | > 10 µM | > 10 µM | > 10 µM | 57 |  |  |  |  | 
10 | > 100 µM | 50.6 µM | CCCCCc1cn(CCCN2C(=O)CN(/N=C/c3ccc([N+](=O)[O-])o3)C2=O)nn1 | 35.6 µM | > 10 µM | 0.55 µM | 0.61 µM | > 10 µM | > 10 µM | > 10 µM | 74 |  | 0.8 | 164 |  | 
11 |  |  | CC[C@H]1CN2CCc3cc(OC)c(OC)cc3[C@@H]2C[C@@H]1C[C@H]1NCCc2cc(OC)c(OC)cc21 [EMETINE] | 0.01 µM |  |  |  |  |  |  |  |  |  |  |  | 
12 |  |  | O=C1CN(/N=C/c2ccc([N+](=O)[O-])o2)C(=O)N1CCCCCCn1cc(-c2cc(C(F)(F)F)cc(C(F)(F)F)c2)nn1 |  | > 10 µM | 0.8 µM | > 10 µM | > 10 µM | 5.35 µM | > 10 µM |  |  |  |  |  | 
13 |  |  | CCCCCCc1cn(CCCCCCN2C(=O)CN(/N=C/c3ccc([N+](=O)[O-])o3)C2=O)nn1 | 83.4 µM | > 10 µM | 5.3 µM | > 10 µM | > 10 µM | 0.48 µM | > 10 µM | 16 | 174 |  |  |  | 
14 |  |  | O=C1CN(/N=C/c2ccc([N+](=O)[O-])o2)C(=O)N1CCCCCCn1cc(CSc2ccccc2)nn1 | 19.6 µM | > 10 µM | 2.75 µM | > 10 µM | > 10 µM | 0.06 µM | > 10 µM | 7 | 327 |  |  |  | 
15 |  |  | O=C1CN(/N=C/c2ccc([N+](=O)[O-])o2)C(=O)N1CCCCCn1cc(-c2cc(C(F)(F)F)cc(C(F)(F)F)c2)nn1 | 17.7 µM | > 10 µM | > 10 µM | > 10 µM | > 10 µM | > 10 µM | > 10 µM |  |  |  |  |  | 
16 |  |  | O=C1CN(/N=C/c2ccc([N+](=O)[O-])o2)C(=O)N1CCCCCCn1cc(-c2ccc(F)cc2)nn1 | 8.97 µM | > 10 µM | 0.22 µM | > 10 µM | > 10 µM | > 10 µM | > 10 µM | 40 |  |  |  |  | 
17 |  |  | Cc1ccc(-c2cn(CCCCCN3C(=O)CN(/N=C/c4ccc([N+](=O)[O-])o4)C3=O)nn2)cc1 | 13.9 µM | > 10 µM | 1.86 µM | > 10 µM | > 10 µM | > 10 µM | > 10 µM | 8 |  |  |  |  | 
18 | 72.8 µM | 70 µM | CCCCCc1cn(CCCCCN2C(=O)CN(/N=C/c3ccc([N+](=O)[O-])o3)C2=O)nn1 | 12 µM | > 10 µM | 1.07 µM | > 10 µM | 6.56 µM | > 10 µM | > 10 µM | 11 |  |  |  | 11 | 0.2
19 |  |  | Cc1ccc(-c2cn(CCCCCCN3C(=O)CN(/N=C/c4ccc([N+](=O)[O-])o4)C3=O)nn2)cc1 | 31.1 µM | > 10 µM | 0.66 µM | > 10 µM | > 10 µM | 0.98 µM | > 10 µM | 47 | 32 |  |  |  | 
20 |  |  | CCCCCc1ccc(-c2cn(CCCCCCN3C(=O)CN(/N=C/c4ccc([N+](=O)[O-])o4)C3=O)nn2)cc1 |  | > 10 µM | 2.19 µM | > 10 µM | > 10 µM | 0.05 µM | > 10 µM |  |  |  |  |  | 
21 |  |  | CCCCCCCCc1cn(CCCN2C(=O)CN(/N=C/c3ccc([N+](=O)[O-])o3)C2=O)nn1 | 11.5 µM | > 10 µM | 0.73 µM | > 10 µM | > 10 µM | > 10 µM | > 10 µM | 16 |  |  |  |  | 
22 |  |  | CCCCCc1ccc(-c2cn(CCCN3C(=O)CN(/N=C/c4ccc([N+](=O)[O-])o4)C3=O)nn2)cc1 | 79.8 µM | > 10 µM | > 10 µM | > 10 µM | > 10 µM | > 10 µM | > 10 µM |  |  |  |  |  | 
23 |  |  | COc1ccc(-c2cn(CCCCCCN3C(=O)CN(/N=C/c4ccc([N+](=O)[O-])o4)C3=O)nn2)cc1 | 5.39 µM | > 10 µM | 0.59 µM | > 10 µM | > 10 µM | 0.23 µM | > 10 µM | 9 | 23 |  |  |  | 
24 |  |  | O=C1CN(/N=C/c2ccc([N+](=O)[O-])o2)C(=O)N1CCCCCn1cc(-c2ccc(F)cc2)nn1 | 37.2 µM | > 10 µM | 0.98 µM | > 10 µM | > 10 µM | > 10 µM | > 10 µM | 40 |  |  |  |  | 
25 |  |  | O=C1CN(/N=C/c2ccc([N+](=O)[O-])o2)C(=O)N1CCCn1cc(-c2ccc(F)cc2)nn1 | > 100 µM | > 10 µM | 0.74 µM | > 10 µM | > 10 µM | > 10 µM | > 10 µM | > 135 |  |  |  |  | 
26 | > 100 µM | 38.5 µM | CCCCCCc1cn(CCCN2C(=O)CN(/N=C/c3ccc([N+](=O)[O-])o3)C2=O)nn1 | 16.5 µM | > 10 µM | 0.48 µM | 0.84 µM | > 10 µM | > 10 µM | > 10 µM | 34 |  | 0.7 | 119 |  | 
27 |  |  | O=C1CN(/N=C/c2ccc([N+](=O)[O-])o2)C(=O)N1CCCn1cc(-c2cc(C(F)(F)F)cc(C(F)(F)F)c2)nn1 | 30.6 µM | > 10 µM | 0.67 µM | > 10 µM | > 10 µM | 1.2 µM | > 10 µM | 46 | 26 |  |  |  | 
